# Where two headings read alike, the source gives them in different places.
# How the values were obtained:
# [1] = Food effect study: safety and tolerability; format: in vivo, human; settings: fed and fasted
# Procedure: Plasma samples were collected pre-dose and at predetermined time intervals up to 48 hours after dosing. Atogepant plasma concentrations were determined using a validated LC-MS/MS assay and the pharmacokinetic (PK) parameters were calculated using WinNonlin. A linear mixed-effects model with sequence, study intervention, and period as fixed effects, and participant nested within sequence as a random effect was used to compare the natural logarithm transformed values of atogepant PK parameters AUC0-t, AUC0-inf, and Cmax. Safety was monitored via ECGs, vital signs, clinical labs, and adverse events.
# [2] = Atogepant-topiramate interaction study, cohort 1: atogepant steady-state PK; format: in vivo, human; settings: for AUC / Cmax / Tmax: both sexes, human, plasma; for Tmax: read-out: Tmax,ss (median)
# Procedure: The duration of the study was 25 days (±2 days), which included day −1 through the follow-up visit and excluded the screening period. The screening period was up to 21 days before day 1 and the intervention period was a total of 19 days, at which point the end of dosing visit was conducted. […] Clinical laboratory tests were performed at the follow-up visit, which was conducted on day 24 (7 [±2] days after the last dose of study medication. […] The primary endpoints were area under the plasma concentration-time curve during dosing interval at steady state (AUC0-tau,ss) and maximum plasma drug concentration at steady state (Cmax,ss) of atogepant and topiramate when coadministered and when administered alone. Additional PK parameters included time of maximum plasma drug concentration at steady state (Tmax,ss), average plasma drug concentration at steady state (Cavg,ss), and minimum plasma drug concentration at steady state (Cmin,ss) of topiramate and atogepant when coadministered and when administered alone.
# [3] = Safety in 12-week placebo-controlled Studies 1 and 2; format: in vivo, human
# Procedure: The safety of atogepant was evaluated in 1958 patients with migraine who received at least one dose of atogepant. Of these, 839 patients were exposed to atogepant once daily for at least 6 months, and 487 patients were exposed for 12 months. In the 12-week, placebo-controlled clinical studies (Study 1 and Study 2, discussed above in Example 7), 314 patients received at least one dose of atogepant 10 mg once daily, 411 patients received at least one dose of atogepant 30 mg once daily, 417 patients received at least one dose of atogepant 60 mg once daily, and 408 patients received placebo. Approximately 88% were female, 80% were White, 17% were Black, and 12% were of Hispanic or Latino ethnicity. The mean age at study entry was 41 years (range 18 to 74 years).
# [4] = system: patients with episodic migraine; assay: Study 2 (NCT02848326): preventive treatment of episodic migraine, efficacy; format: in vivo, human
# Procedure: The studies enrolled patients with at least a 1-year history of migraine with or without aura, according to the International Classification of Headache Disorders (ICHD-3) diagnostic criteria. In Study 1 (NCT03777059), 910 patients were randomized 1:1:1:1 to receive atogepant 10 mg (N=222), atogepant 30 mg (N=230), atogepant 60 mg (N=235), or placebo (N=223), once daily for 12 weeks. In Study 2 (NCT02848326), 652 patients were randomized 1:2:2:2 to receive atogepant 10 mg (N=94), atogepant 30 mg (N=185), atogepant 60 mg (N=187), or placebo (N=186), once daily for 12 weeks. In both studies, patients were allowed to use acute headache treatments (i.e., triptans, ergotamine derivatives, NSAIDs, acetaminophen, and opioids) as needed. The use of a concomitant medication that acts on the CGRP pathway was not permitted for either acute or preventive treatment of migraine. The studies excluded patients with myocardial infarction, stroke, or transient ischemic attacks within six months prior to screening. The primary efficacy endpoint was the change from baseline in mean monthly migraine days across the 12-week treatment period.
# [5] = target: CYP2C9 (Homo sapiens, UniProt P11712); assay: In vitro CYP inhibition; format: in vitro ADME; settings: clinically relevant concentrations
# Chain of CYP2C9 (P11712 whole entry): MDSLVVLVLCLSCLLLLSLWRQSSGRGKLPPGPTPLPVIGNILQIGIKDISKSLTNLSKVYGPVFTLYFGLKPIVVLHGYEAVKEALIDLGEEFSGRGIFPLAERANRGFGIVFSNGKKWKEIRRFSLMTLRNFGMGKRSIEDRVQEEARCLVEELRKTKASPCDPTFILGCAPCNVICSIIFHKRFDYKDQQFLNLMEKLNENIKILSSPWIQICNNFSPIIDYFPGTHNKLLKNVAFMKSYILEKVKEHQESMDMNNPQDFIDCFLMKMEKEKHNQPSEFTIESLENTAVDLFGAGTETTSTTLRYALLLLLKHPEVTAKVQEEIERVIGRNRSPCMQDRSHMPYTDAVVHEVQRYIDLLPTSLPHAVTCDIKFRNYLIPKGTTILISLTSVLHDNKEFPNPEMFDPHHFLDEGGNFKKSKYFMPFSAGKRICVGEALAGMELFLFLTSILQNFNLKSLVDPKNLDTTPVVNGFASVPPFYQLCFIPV
# [6] = target: CYP2D6 (Homo sapiens, UniProt P10635); assay: In vitro CYP inhibition; format: in vitro ADME; settings: clinically relevant concentrations
# Chain of CYP2D6 (P10635 whole entry): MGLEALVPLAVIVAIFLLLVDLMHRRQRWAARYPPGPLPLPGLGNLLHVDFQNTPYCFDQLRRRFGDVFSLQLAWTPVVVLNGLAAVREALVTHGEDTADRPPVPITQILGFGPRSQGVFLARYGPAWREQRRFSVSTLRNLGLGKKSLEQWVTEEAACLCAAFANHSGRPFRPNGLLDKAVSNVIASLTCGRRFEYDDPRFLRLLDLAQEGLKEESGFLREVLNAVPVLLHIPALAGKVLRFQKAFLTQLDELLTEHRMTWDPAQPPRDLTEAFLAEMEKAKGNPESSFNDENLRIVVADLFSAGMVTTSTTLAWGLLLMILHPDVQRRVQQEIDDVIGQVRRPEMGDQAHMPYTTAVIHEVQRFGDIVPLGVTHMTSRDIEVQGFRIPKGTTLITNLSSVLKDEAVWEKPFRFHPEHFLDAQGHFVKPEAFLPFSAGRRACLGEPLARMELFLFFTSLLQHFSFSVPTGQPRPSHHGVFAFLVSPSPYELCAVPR
# [7] = atogepant 60 mg QD + topiramate 100 mg BID, day 17
# [8] = atogepant 60 mg QD alone, day 7
# [9] = Studies 1 and 2, atogepant 10 mg (N = 314)
# [10] = Studies 1 and 2, atogepant 30 mg (N = 411)
# [11] = Studies 1 and 2, atogepant 60 mg (N = 417)
# [12] = Study 2, atogepant 10 mg once daily
# [13] = Study 2, atogepant 30 mg once daily
# [14] = Study 2, atogepant 60 mg once daily
structure (smiles),measurement,setting,value
"C[C@@H]1[C@H](c2c(F)ccc(F)c2F)C[C@H](NC(=O)c2cnc3c(c2)C[C@@]2(C3)C(=O)Nc3ncccc32)C(=O)N1CC(F)(F)F [atogepant, (3′S)-N-[(3S,5S,6R)-6-methyl-2-oxo-1-(2,2,2-trifluoroethyl)-5-(2,3,6-trifluorophenyl)piperidin-3-yl]-2′-oxo-1′,2′,5,7-tetrahydrospiro[cyclopenta[b]pyridine-6,3′-pyrrolo[2,3-b]pyridine]-3-carboxamide]",participants with TEAEs considered related to study intervention,[1]; overall,15%
same,participants with arthralgia,[1]; overall,10.0%
same,participants with back pain,[1]; overall,10.0%
same,participants with treatment emergent AEs (TEAEs),[1]; overall,35.0%
same,safety and tolerability,[1]; single doses of 60-mg IR formulation,safe and well-tolerated
same,"Cavg,ss",[2]; [7],95.8 ng/mL
same,"Cmin,ss",[2]; [7],6.3 ng/mL
same,"Cavg,ss",[2]; [8],125.6 ng/mL
same,"Cmin,ss",[2]; [8],10.2 ng/mL
same,AUC,"[2]; 60 mg, Atogepant Alone, read-out: AUC0-tau,ss Geometric LSM",2720 ng·h/mL
same,Cmax,"[2]; 60 mg, Atogepant Alone, read-out: Cmax,ss Geometric LSM",535 ng/mL
same,AUC,"[2]; 60 mg, atogepant 60 mg QD alone, day 7, read-out: AUC0-tau,ss",3020 ng·h/mL
same,Cmax,"[2]; 60 mg, atogepant 60 mg QD alone, day 7, read-out: Cmax,ss",626 ng/mL
same,AUC,"[2]; Atogepant and Topiramate, read-out: AUC0-tau,ss Geometric LSM",2030 ng·h/mL
same,Cmax,"[2]; Atogepant and Topiramate, read-out: Cmax,ss Geometric LSM",406 ng/mL
same,AUC,"[2]; atogepant 60 mg QD + topiramate 100 mg BID, day 17, read-out: AUC0-tau,ss",2300 ng·h/mL
same,Cmax,"[2]; atogepant 60 mg QD + topiramate 100 mg BID, day 17, read-out: Cmax,ss",491 ng/mL
same,Tmax,[2]; [7],2 h
same,Tmax,[2]; [8],2 h
same,"reduction of atogepant AUC0-tau,ss",[2]; coadministered with topiramate,25%
same,"reduction of atogepant Cmax,ss",[2]; coadministered with topiramate,24%
same,discontinuation due to constipation,[3]; Studies 1 and 2,0.5%
same,discontinuation due to fatigue/somnolence,[3]; Studies 1 and 2,0.5%
same,discontinuation due to nausea,[3]; Studies 1 and 2,0.5%
same,proportion of patients with a weight decrease of at least 7% at any point,"[3]; Studies 1 and 2, atogepant 10 mg",3.8%
same,"Constipation, incidence",[3]; [9],6%
same,"Decreased Appetite, incidence",[3]; [9],2%
same,"Fatigue/Somnolence, incidence",[3]; [9],4%
same,"Nausea, incidence",[3]; [9],5%
same,proportion of patients with a weight decrease of at least 7% at any point,"[3]; Studies 1 and 2, atogepant 30 mg",3.2%
same,"Constipation, incidence",[3]; [10],6%
same,"Decreased Appetite, incidence",[3]; [10],1%
same,"Fatigue/Somnolence, incidence",[3]; [10],4%
same,"Nausea, incidence",[3]; [10],6%
same,proportion of patients with a weight decrease of at least 7% at any point,"[3]; Studies 1 and 2, atogepant 60 mg",4.9%
same,"Constipation, incidence",[3]; [11],6%
same,"Decreased Appetite, incidence",[3]; [11],2%
same,"Fatigue/Somnolence, incidence",[3]; [11],6%
same,"Nausea, incidence",[3]; [11],9%
same,severe liver injury or jaundice,[3]; Study 1 and Study 2,no cases
same,rate of transaminase elevations over 3 times the upper limit of normal,"[3]; Study 1 and Study 2, patients treated with atogepant",1.0%
same,time to resolution of transaminase elevations after discontinuation,"[3]; cases temporally associated with atogepant treatment, asymptomatic",≤ 8 weeks
same,"Monthly Headache Days across 12 weeks, difference from placebo",[4]; [12],−1.4
same,"Monthly Headache Days across 12 weeks, mean change from baseline",[4]; [12],−4.3
same,"Monthly Migraine Days (MMD) across 12 weeks, difference from placebo",[4]; [12],−1.1
same,"Monthly Migraine Days (MMD) across 12 weeks, mean change from baseline",[4]; [12],−4.0
same,"Monthly Headache Days across 12 weeks, difference from placebo",[4]; [13],−1.2
same,"Monthly Headache Days across 12 weeks, mean change from baseline",[4]; [13],−4.2
same,"Monthly Migraine Days (MMD) across 12 weeks, difference from placebo",[4]; [13],−0.9
same,"Monthly Migraine Days (MMD) across 12 weeks, mean change from baseline",[4]; [13],−3.8
same,"Monthly Headache Days across 12 weeks, difference from placebo",[4]; [14],−0.9
same,"Monthly Headache Days across 12 weeks, mean change from baseline",[4]; [14],−3.9
same,"Monthly Migraine Days (MMD) across 12 weeks, difference from placebo",[4]; [14],−0.7
same,"Monthly Migraine Days (MMD) across 12 weeks, mean change from baseline",[4]; [14],−3.6
same,inhibition of CYP2C9,[5],not an inhibitor
same,inhibition of CYP2D6,[6],not an inhibitor

# — patent US12350259B2, “Methods of treating migraine” (Allergan Pharmaceuticals International Limited, priority 2021, dated 2025)
